Results taken from patent publication US20220332706A1, “CRYSTALLINE FORMS OF A JAK2 INHIBITOR” (Impact Biomedicines, Inc., priority 2019, published 2022).
≈ marks a conversion by molar mass, not a printed value. Where two headings read alike, the source gives them in different places. Blank lines part the entries; values can stand above or below the compound they belong to.

What was measured:
Assay type in all cases: physicochemical
[1] = Solubility assessment, visually estimated by dosing solvent aliquots into 10.0 mg API; conditions: thermodynamic from solid
Description: Solubility was assessed in an array of diverse solvents in order to facilitate the selection of solvent systems and corresponding dosing strategies for the subsequent crystal-form screening experiments.

[2] = Relative stability (competitive ripening) study of Forms A and B; conditions: for Final Form Observed: seven days, suspension of ~10 mg Form A and ~10 mg Form B
Description: Saturated suspensions of Form A were prepared by stirring excess Form A in the specified solvent system. The suspension was stirred overnight at 25° C. A clarifying filtration was performed and the filtrate was added to a 2 mL vial containing ˜10 mg of Form A and ˜10 mg of Form B. The resulting suspensions were stirred at 25° C. for seven days, isolated, dried under vacuum for 45 minutes, and analyzed by FT-Raman.

[3] = Moisture sorption/desorption isotherms (DVS); conditions: 25° C., first sorption cycle 0 to 75% RH, desolvation with solvent exchange induced by water vapour
Description: Moisture sorption/desorption isotherms. All experiments were performed on a DVS-1 automated gravimetric vapour sorption analyser (Surface Measurement Systems Ltd., London, UK). The DVS measures the uptake and loss of vapour gravimetrically using a Cahn D200 recording ultra-microbalance with a mass resolution of ±0.1 μg. A controlled relative humidity is generated by mixing different proportions of dry and water saturated carrier gas streams (monitored by mass flow controllers). The temperature was maintained constant, ±0.1° C., by enclosing the entire system in a temperature-controlled incubator. A sample size around 10 mg was used. Prior to being exposed to any water vapour the samples were dried at 0% relative humidity (RH) to remove any surface water present and establish a dry, baseline mass. […] Two consecutive cycles were recorded. From the complete moisture sorption and desorption profile an isotherm was calculated using the DVS Advanced Analysis Suite v3.6. […]
DVS curves are carried out at 25° C. on hexafluoroisopropanol solvate (FIG. 18). After 6 hours under nitrogen a weight loss of 5% is recorded (a partial desolvation is observed with a pre-treatment at 25° C.). During the first sorption cycle, an important weight loss is recorded between 0 and 75% RH (around 30%). […]

[4] = Characterization of crystal forms: behaviour under ambient conditions

solubility ([1]; all other solvents evaluated (of 12; not DMSO, MeOH, water), organic solvent or mixture, in all other solvents evaluated, read-out: low solubility): ≤ 5000 µg/mL | solubility ([1]; organic solvent or mixture, DCM, 40° C., read-out: Solubility at 40° C.): < 5000 µg/mL | solubility ([1]; organic solvent or mixture, DCM, RT, read-out: Solubility at RT): < 5000 µg/mL | solubility ([1]; organic solvent or mixture, DMSO, RT, read-out: Solubility at RT): > 400000 µg/mL | solubility ([1]; organic solvent or mixture, EtOAc, 40° C., read-out: Solubility at 40° C.): < 5000 µg/mL | solubility ([1]; organic solvent or mixture, EtOAc, RT, read-out: Solubility at RT): < 5000 µg/mL | solubility ([1]; organic solvent or mixture, IPA, 40° C., read-out: Solubility at 40° C.): < 5000 µg/mL | solubility ([1]; organic solvent or mixture, IPA, RT, read-out: Solubility at RT): < 5000 µg/mL | solubility ([1]; organic solvent or mixture, IPA:water (9:1) v/v, 40° C., read-out: Solubility at 40° C.): > 5000 µg/mL | solubility ([1]; organic solvent or mixture, IPA:water (9:1) v/v, RT, read-out: Solubility at RT): < 5000 µg/mL | solubility ([1]; organic solvent or mixture, IPE, 40° C., read-out: Solubility at 40° C.): < 5000 µg/mL | solubility ([1]; organic solvent or mixture, IPE, RT, read-out: Solubility at RT): < 5000 µg/mL | solubility ([1]; organic solvent or mixture, MTBE, 40° C., read-out: Solubility at 40° C.): < 5000 µg/mL | solubility ([1]; organic solvent or mixture, MTBE, RT, read-out: Solubility at RT): < 5000 µg/mL | solubility ([1]; organic solvent or mixture, MeCN, 40° C., read-out: Solubility at 40° C.): < 5000 µg/mL | solubility ([1]; organic solvent or mixture, MeCN, RT, read-out: Solubility at RT): < 5000 µg/mL | solubility ([1]; organic solvent or mixture, MeOH, RT, read-out: Solubility at RT): > 400000 µg/mL | solubility ([1]; organic solvent or mixture, THF, 40° C., read-out: Solubility at 40° C.): < 5000 µg/mL | solubility ([1]; organic solvent or mixture, THF, RT, read-out: Solubility at RT): < 5000 µg/mL | solubility ([1]; organic solvent or mixture, Toluene, 40° C., read-out: Solubility at 40° C.): < 5000 µg/mL | solubility ([1]; organic solvent or mixture, Toluene, RT, read-out: Solubility at RT): < 5000 µg/mL | solubility ([1]; Water, RT, read-out: Solubility at RT): 100000 to 400000 µg/mL (≈ 191 to 762 mM) | solubility ([1]; in DMSO, MeOH, and water): > 100000 µg/mL | relative stability of hydrates ([2]; 25° C., over the entire water activity range): stable hydrate | Final Form Observed ([2]; Acetone:Water (83:17), water activity 0.75, 25 °C): Form A | Final Form Observed ([2]; Ethanol, water activity 0, 25 °C): Form A | Final Form Observed ([2]; Methanol:Water (73:27), water activity 0.5, 25 °C): Form A | Final Form Observed ([2]; Water, water activity 1, 25 °C): Form A
Structure (SMILES): Cc1cnc(Nc2ccc(OCCN3CCCC3)cc2)nc1Nc1cccc(S(=O)(=O)NC(C)(C)C)c1 [Form A]

form change during DVS [3]: transform into Form B
Structure (SMILES): Cc1cnc(Nc2ccc(OCCN3CCCC3)cc2)nc1Nc1cccc(S(=O)(=O)NC(C)(C)C)c1 [Form H]

physical stability of the solvate [4]: efflorescent solvate
Structure (SMILES): Cc1cnc(Nc2ccc(OCCN3CCCC3)cc2)nc1Nc1cccc(S(=O)(=O)NC(C)(C)C)c1 [Form I]
